Paper PMC6599250, “Functional diversity of inhibitors tackling the differentiation blockage of MLL-rearranged leukemia” (Journal of Hematology & Oncology, 2019)
Where two headings read alike, the source gives them in different places.

Key:
Type in all cases: cell-based
HL-60 (MLL-WT) cells = experiment: Cell proliferation (alamarBlue) HL-60; conditions: Homo sapiens, read-out: IC50 proliferation
Protocol: (§1) Cells were seeded in the optimal growth medium at 4000–5000 cells/well in a 96 MTP and cultured 18–24 h before inhibitor treatment.

Jurkat (MLL-WT) cells = experiment: Cell proliferation (alamarBlue) Jurkat; conditions: Homo sapiens
Protocol: as §1

OCI-AML-5 (MLL-WT) cells = experiment: Cell proliferation (alamarBlue) OCI-AML-5; conditions: Homo sapiens
Protocol: as §1

OCI-AML-3 (MLL-WT) cells = experiment: Cell proliferation (alamarBlue) OCI-AML-3; conditions: Homo sapiens
Protocol: as §1

MV4-11 (MLL-AF4) cells = experiment: Cell proliferation (alamarBlue) MV4-11; conditions: Homo sapiens
Protocol: as §1

RS4;11 (MLL-AF4) cells = experiment: Cell proliferation (alamarBlue) RS4;11; conditions: Homo sapiens, RS4-11, read-out: IC50 proliferation, RS4;11 (MLL-AF4)
Protocol: as §1

SEM (MLL-AF4) cells = experiment: Cell proliferation (alamarBlue) SEM
Protocol: as §1

ML-2 (MLL-AF6) cells = experiment: Cell proliferation (alamarBlue) ML-2
Protocol: as §1

MOLM-13 (MLL-AF9) cells = experiment: Cell proliferation (alamarBlue) MOLM-13; conditions: Homo sapiens
Protocol: as §1

MOLM-14 (MLL-AF9) cells = experiment: Cell proliferation (alamarBlue) MOLM-14; conditions: Homo sapiens
Protocol: as §1

NOMO-1 (MLL-AF9) cells = experiment: Cell proliferation (alamarBlue) NOMO-1; conditions: Homo sapiens
Protocol: as §1

[1] = tested on: OCI-AML-2 (MLL-AF9) cells; experiment: Cell proliferation (alamarBlue) OCI-AML-2; conditions: Homo sapiens
Protocol: as §1

KOPN-8 (MLL-ENL) cells = experiment: Cell proliferation (alamarBlue) KOPN-8; conditions: Homo sapiens
Protocol: as §1

EOL-1 (MLL-TD) cells = experiment: Cell proliferation (alamarBlue) EOL-1; conditions: Homo sapiens
Protocol: as §1

[2] = tested on: MV4-11, MOLM-13 and HL-60 cells; experiment: Cell proliferation, all three tested AML cell lines; conditions: 96 h, read-out: anti-proliferation IC50s
Protocol: Cells were seeded in the optimal growth medium at 4000–5000 cells/well in a 96 MTP and cultured 18–24 h before inhibitor treatment. Upon treatment with the indicated inhibitor, cells were cultured for 24 h, 96 h, and 168 h and effects on proliferation were determined using alamarBlue Cell Viability Reagent (Thermo Fisher Scientific, Waltham, MA, USA).

[3] = tested on: MLL-fused cell lines (MV4-11, MOLM-13); experiment: CD11b protein expression by flow cytometry, MLL-fused lines; conditions: 4 and 7 days of treatment
Protocol: (§2) Four thousand cells per well were seeded 24 h before they were treated with the indicated inhibitor in a 96 MTP. After 4 or 7 days of treatment, cells were washed with PBS and stained with CD11b - APC (BioLegend, San Diego, California, USA) and DAPI (Thermo Fisher Scientific, Waltham, Massachusetts, USA) or AnnexinV – FITC (BioLegend, San Diego, California, USA) and PI solution (Sigma-Aldrich St. Louis, Missouri, USA) using the FACS Canto II (BD Biosciences, Heidelberg, Germany) and data was analyzed with FACSDiva software.

HL-60 cells = experiment: CD11b protein expression by flow cytometry, HL-60; conditions: non-fused HL-60 cell line, 4 and 7 days of treatment
Protocol: as §2

[4] = tested on: MV4-11, MOLM-13 and HL-60 cells; experiment: Cell cycle analysis (PI, flow cytometry); conditions: 4 days of treatment (Figure S2)
Protocol: Cells were washed with PBS and fixed overnight at − 20 °C with 70% ethanol. Fixed cells were stained with PI solution (Sigma-Aldrich St. Louis, MO, USA) solution containing RNase A (Qiagen, Hilden, Germany). Fluorescence was measured with FACS Canto II (BD Biosciences, Heidelberg, Germany) flow cytometer and data was analyzed with FACSDiva software.

IC50 (HL-60 (MLL-WT) cells; HL-60, 24 h): > 10000 nM | IC50 (HL-60 (MLL-WT) cells; HL-60, 96 h): 800 nM | IC50 (HL-60 (MLL-WT) cells; HL-60, 168 h): 270 nM | IC50 (Jurkat (MLL-WT) cells; read-out: IC50 proliferation, Jurkat (MLL-WT), D1): > 10000 nM | IC50 (Jurkat (MLL-WT) cells; read-out: IC50 proliferation, Jurkat (MLL-WT), D4): 30 nM | IC50 (Jurkat (MLL-WT) cells; read-out: IC50 proliferation, Jurkat (MLL-WT), D7): 50 nM | IC50 (OCI-AML-5 (MLL-WT) cells; OCI-AML-5, read-out: IC50 proliferation, OCI-AML-5 (MLL-WT), D1): > 10000 nM | IC50 (OCI-AML-5 (MLL-WT) cells; OCI-AML-5, read-out: IC50 proliferation, OCI-AML-5 (MLL-WT), D4): > 10000 nM | IC50 (OCI-AML-5 (MLL-WT) cells; OCI-AML-5, read-out: IC50 proliferation, OCI-AML-5 (MLL-WT), D7): > 10000 nM | IC50 (OCI-AML-3 (MLL-WT) cells; OCI-AML-3, read-out: IC50 proliferation, OCI-AML-3 (MLL-WT), D1): > 10000 nM | IC50 (OCI-AML-3 (MLL-WT) cells; OCI-AML-3, read-out: IC50 proliferation, OCI-AML-3 (MLL-WT), D4): 200 nM | IC50 (OCI-AML-3 (MLL-WT) cells; OCI-AML-3, read-out: IC50 proliferation, OCI-AML-3 (MLL-WT), D7): 240 nM | IC50 (MV4-11 (MLL-AF4) cells; MV4-11, read-out: IC50 proliferation, MV4-11 (MLL-AF4), D1): > 10000 nM | IC50 (MV4-11 (MLL-AF4) cells; MV4-11, read-out: IC50 proliferation, MV4-11 (MLL-AF4), D4): 100 nM | IC50 (MV4-11 (MLL-AF4) cells; MV4-11, read-out: IC50 proliferation, MV4-11 (MLL-AF4), D7): 220 nM | IC50 (RS4;11 (MLL-AF4) cells; D1): > 10000 nM | IC50 (RS4;11 (MLL-AF4) cells; D4): 1100 nM | IC50 (RS4;11 (MLL-AF4) cells; D7): > 10000 nM | IC50 (MOLM-13 (MLL-AF9) cells; MOLM-13, read-out: IC50 proliferation, MOLM-13 (MLL-AF9), D1): > 10000 nM | IC50 (MOLM-13 (MLL-AF9) cells; MOLM-13, read-out: IC50 proliferation, MOLM-13 (MLL-AF9), D4): 110 nM | IC50 (MOLM-13 (MLL-AF9) cells; MOLM-13, read-out: IC50 proliferation, MOLM-13 (MLL-AF9), D7): 220 nM | IC50 (MOLM-14 (MLL-AF9) cells; MOLM-14, read-out: IC50 proliferation, MOLM-14 (MLL-AF9), D1): > 10000 nM | IC50 (MOLM-14 (MLL-AF9) cells; MOLM-14, read-out: IC50 proliferation, MOLM-14 (MLL-AF9), D4): 320 nM | IC50 (MOLM-14 (MLL-AF9) cells; MOLM-14, read-out: IC50 proliferation, MOLM-14 (MLL-AF9), D7): 180 nM | IC50 ([1]; OCI-AML2, read-out: IC50 proliferation, OCI-AML-2 (MLL-AF9), D1): > 10000 nM | IC50 ([1]; OCI-AML2, read-out: IC50 proliferation, OCI-AML-2 (MLL-AF9), D4): > 10000 nM | IC50 ([1]; OCI-AML2, read-out: IC50 proliferation, OCI-AML-2 (MLL-AF9), D7): > 10000 nM | IC50 [2]: 30 to 140 nM
SMILES: Cc1c(-c2ccc(-c3ccccc3F)cc2)nc2ccc(F)cc2c1C(=O)O [Brequinar]
IC50 (SEM (MLL-AF4) cells; read-out: IC50 proliferation, SEM (MLL-AF4), D1): > 10000 nM | IC50 (SEM (MLL-AF4) cells; read-out: IC50 proliferation, SEM (MLL-AF4), D4): 190 nM | IC50 (SEM (MLL-AF4) cells; read-out: IC50 proliferation, SEM (MLL-AF4), D7): 250 nM | IC50 (ML-2 (MLL-AF6) cells; read-out: IC50 proliferation, ML-2 (MLL-AF6), D1): > 10000 nM | IC50 (ML-2 (MLL-AF6) cells; read-out: IC50 proliferation, ML-2 (MLL-AF6), D4): 500 nM | IC50 (ML-2 (MLL-AF6) cells; read-out: IC50 proliferation, ML-2 (MLL-AF6), D7): 310 nM | IC50 (NOMO-1 (MLL-AF9) cells; NOMO-1, read-out: IC50 proliferation, NOMO-1 (MLL-AF9), D1): > 10000 nM | IC50 (NOMO-1 (MLL-AF9) cells; NOMO-1, read-out: IC50 proliferation, NOMO-1 (MLL-AF9), D4): 270 nM | IC50 (NOMO-1 (MLL-AF9) cells; NOMO-1, read-out: IC50 proliferation, NOMO-1 (MLL-AF9), D7): 130 nM | IC50 (KOPN-8 (MLL-ENL) cells; KOPN-8, read-out: IC50 proliferation, KOPN-8 (MLL-ENL), D1): > 10000 nM | IC50 (KOPN-8 (MLL-ENL) cells; KOPN-8, read-out: IC50 proliferation, KOPN-8 (MLL-ENL), D4): 300 nM | IC50 (KOPN-8 (MLL-ENL) cells; KOPN-8, read-out: IC50 proliferation, KOPN-8 (MLL-ENL), D7): 360 nM | IC50 (EOL-1 (MLL-TD) cells; EOL1, read-out: IC50 proliferation, EOL-1 (MLL-TD), D1): > 10000 nM | IC50 (EOL-1 (MLL-TD) cells; EOL1, read-out: IC50 proliferation, EOL-1 (MLL-TD), D4): 380 nM | IC50 (EOL-1 (MLL-TD) cells; EOL1, read-out: IC50 proliferation, EOL-1 (MLL-TD), D7): 110 nM | CD11b protein level [3]: increased CD11b protein level in a dose and time-dependent manner | CD11b level (HL-60 cells): treatment did | cell cycle effect [4]: slight S-phase arrest at lower concentrations
